Measurements taken from ChEMBL document CHEMBL3600371, “Design and synthesis of imidazole N-H substituted amide prodrugs as inhibitors of hepatitis C virus replication” (Bioorg Med Chem Lett, 2015).
pEC50: −log10 of the molar value.

Key:
[1] = Stability of the compound in water at pH 2; type: physicochemical; details: buffer
[2] = Stability of the compound in water at pH 7; type: physicochemical; details: buffer
[3] = Stability of the compound in blood (unknown origin); type: ADME, tissue-based
[4] = system: Rattus norvegicus; test: Drug level in Sprague-Dawley rat treated with ((S,S)-5,5'-([1,1'-Biphenyl]-4,4'-diyl)bis(2-((S)-1-((S)-2-((methoxycarbonyl)amino)-3-methylbutanoyl)pyrrolidin-2-yl)-1H-imidazole-5,1-diyl))bis(2-oxoethane-2,1-diyl)diacetate at 5 mg/kg, po measured over 9 hrs; type: ADME, organism-based; details: in vivo
[5] = Cmax in Sprague-Dawley rat at 5 mg/kg, po; type: ADME, organism-based; set-up: dose 5 mg/kg, route oral; details: in vivo
[6] = Tmax in Sprague-Dawley rat at 5 mg/kg, po; type: ADME, organism-based; details: in vivo
[7] = AUC (0 to 8 hrs) in Sprague-Dawley rat at 5 mg/kg, po; type: ADME, organism-based; set-up: time < 8 hr, dose 5 mg/kg, route oral; details: in vivo
[8] = AUC (0 to infinity) in Sprague-Dawley rat at 5 mg/kg, po; type: ADME, organism-based; set-up: dose 5 mg/kg, route oral, time infinity; details: in vivo
[9] = Mean residence time in Sprague-Dawley rat at 5 mg/kg, po; type: ADME, organism-based; details: in vivo
[10] = Half life in Sprague-Dawley rat at 5 mg/kg, po; type: ADME, organism-based; details: in vivo
[11] = system: Hepatitis C virus; test: microbe, parasite or virus in culture; details: JFH-1, Huh-7
Description: Antiviral activity against HCV genotype 1b JFH-1 infected in human HuH7 cells assessed as inhibition of viral replication

[12] = system: Hepatitis C virus; test: Antiviral activity against HCV genotype 1b replicon infected in human HuH7 cells assessed as inhibition of viral RNA replication by luciferase reporter assay; type: functional, organism-based, Hepacivirus hominis; details: Huh-7
[13] = system: Rattus norvegicus; test: Prodrug conversion in Sprague-Dawley rat assessed as formation of daclatasvir at 5 mg/kg, po measured over 9 hrs; type: ADME, organism-based; details: in vivo
[14] = Half life in blood (unknown origin); type: ADME, tissue-based
[15] = system: Rattus norvegicus; test: Cmax in Sprague-Dawley rat assessed as daclatasvir at 5 mg/kg, po; type: ADME, organism-based; set-up: dose 5 mg/kg, route oral; details: in vivo
[16] = system: Rattus norvegicus; test: Tmax in Sprague-Dawley rat assessed as daclatasvir at 5 mg/kg, po; type: ADME, organism-based; details: in vivo
[17] = system: Rattus norvegicus; test: AUC (0 to 8 hrs) in Sprague-Dawley rat assessed as daclatasvir at 5 mg/kg, po; type: ADME, organism-based; set-up: time < 8 hr, dose 5 mg/kg, route oral; details: in vivo
[18] = system: Rattus norvegicus; test: AUC (0 to infinity) in Sprague-Dawley rat assessed as daclatasvir at 5 mg/kg, po; type: ADME, organism-based; set-up: dose 5 mg/kg, time infinity, route oral; details: in vivo
[19] = system: Rattus norvegicus; test: Mean residence time in Sprague-Dawley rat assessed as daclatasvir at 5 mg/kg, po; type: ADME, organism-based; details: in vivo
[20] = system: Rattus norvegicus; test: Half life in Sprague-Dawley rat assessed as daclatasvir at 5 mg/kg, po; type: ADME, organism-based; details: in vivo
[21] = system: Hepatitis C virus; test: Antiviral activity against HCV genotype 1 in patient assessed as virological response rate; type: functional, Hepacivirus hominis

SMILES: COC(=O)N[C@H](C(=O)N1CCC[C@H]1c1nc(-c2ccc(-c3ccc(-c4c[nH]c([C@@H]5CCCN5C(=O)[C@@H](NC(=O)OC)C(C)C)n4)cc3)cc2)c[nH]1)C(C)C
- Stability [1]: Stable
- Stability [2]: Stable
- Stability [3]: Stable
- Drug metabolism [4]: metabolite_detected
- Cmax [5]: 484 ng/mL
- Tmax [6]: 3.01 h
- AUC(0-t) at 8 h [7]: 3210 ng·h/mL
- AUC(0-inf) [8]: 3320 ng·h/mL
- MRT [9]: 3.43 h
- half-life [10]: 1.66 h
- pEC50 [11]: 10.55

SMILES: COC(=O)N[C@H](C(=O)N1CCC[C@H]1c1ncc(-c2ccc(-c3ccc(-c4cnc([C@@H]5CCCN5C(=O)[C@@H](NC(=O)OC)C(C)C)n4C(C)=O)cc3)cc2)n1C(C)=O)C(C)C
- pEC50 [12]: 7.92

SMILES: CCC(=O)n1c(-c2ccc(-c3ccc(-c4cnc([C@@H]5CCCN5C(=O)[C@@H](NC(=O)OC)C(C)C)n4C(=O)CC)cc3)cc2)cnc1[C@@H]1CCCN1C(=O)[C@@H](NC(=O)OC)C(C)C
- pEC50 [12]: 7.41

SMILES: CCCC(=O)n1c(-c2ccc(-c3ccc(-c4cnc([C@@H]5CCCN5C(=O)[C@@H](NC(=O)OC)C(C)C)n4C(=O)CCC)cc3)cc2)cnc1[C@@H]1CCCN1C(=O)[C@@H](NC(=O)OC)C(C)C
- pEC50 [12]: 7.07

SMILES: COC(=O)N[C@H](C(=O)N1CCC[C@H]1c1ncc(-c2ccc(-c3ccc(-c4cnc([C@@H]5CCCN5C(=O)[C@@H](NC(=O)OC)C(C)C)n4C(=O)C(C)C)cc3)cc2)n1C(=O)C(C)C)C(C)C
- pEC50 [12]: 6.88

SMILES: COC(=O)N[C@H](C(=O)N1CCC[C@H]1c1ncc(-c2ccc(-c3ccc(-c4cnc([C@@H]5CCCN5C(=O)[C@@H](NC(=O)OC)C(C)C)n4C(=O)C(C)(C)C)cc3)cc2)n1C(=O)C(C)(C)C)C(C)C
- pEC50 [12]: < 4.00

SMILES: COC(=O)N[C@H](C(=O)N1CCC[C@H]1c1ncc(-c2ccc(-c3ccc(-c4cnc([C@@H]5CCCN5C(=O)[C@@H](NC(=O)OC)C(C)C)n4C(=O)CC(C)(C)C)cc3)cc2)n1C(=O)CC(C)(C)C)C(C)C
- pEC50 [12]: < 4.00

SMILES: CCCCC(=O)n1c(-c2ccc(-c3ccc(-c4cnc([C@@H]5CCCN5C(=O)[C@@H](NC(=O)OC)C(C)C)n4C(=O)CCCC)cc3)cc2)cnc1[C@@H]1CCCN1C(=O)[C@@H](NC(=O)OC)C(C)C
- pEC50 [12]: 6.64

SMILES: CCCCCC(=O)n1c(-c2ccc(-c3ccc(-c4cnc([C@@H]5CCCN5C(=O)[C@@H](NC(=O)OC)C(C)C)n4C(=O)CCCCC)cc3)cc2)cnc1[C@@H]1CCCN1C(=O)[C@@H](NC(=O)OC)C(C)C
- pEC50 [12]: 6.49

SMILES: CCCCCCC(=O)n1c(-c2ccc(-c3ccc(-c4cnc([C@@H]5CCCN5C(=O)[C@@H](NC(=O)OC)C(C)C)n4C(=O)CCCCCC)cc3)cc2)cnc1[C@@H]1CCCN1C(=O)[C@@H](NC(=O)OC)C(C)C
- pEC50 [12]: 6.27

SMILES: COC(=O)N[C@H](C(=O)N1CCC[C@H]1c1ncc(-c2ccc(-c3ccc(-c4cnc([C@@H]5CCCN5C(=O)[C@@H](NC(=O)OC)C(C)C)n4C(=O)CC(C)CC(C)(C)C)cc3)cc2)n1C(=O)CC(C)CC(C)(C)C)C(C)C (some centres not stated)
- pEC50 [12]: < 4.00

SMILES: COC(=O)N[C@H](C(=O)N1CCC[C@H]1c1ncc(-c2ccc(-c3ccc(-c4cnc([C@@H]5CCCN5C(=O)[C@@H](NC(=O)OC)C(C)C)n4C(=O)CC4CCCCC4)cc3)cc2)n1C(=O)CC1CCCCC1)C(C)C
- pEC50 [12]: 6.96

SMILES: COC(=O)N[C@H](C(=O)N1CCC[C@H]1c1ncc(-c2ccc(-c3ccc(-c4cnc([C@@H]5CCCN5C(=O)[C@@H](NC(=O)OC)C(C)C)n4C(=O)CCC4CCCCC4)cc3)cc2)n1C(=O)CCC1CCCCC1)C(C)C
- pEC50 [12]: 6.91

SMILES: COC(=O)N[C@H](C(=O)N1CCC[C@H]1c1ncc(-c2ccc(-c3ccc(-c4cnc([C@@H]5CCCN5C(=O)[C@@H](NC(=O)OC)C(C)C)n4C(=O)CCC4CCCC4)cc3)cc2)n1C(=O)CCC1CCCC1)C(C)C
- pEC50 [12]: 6.71

SMILES: COC(=O)N[C@H](C(=O)N1CCC[C@H]1c1ncc(-c2ccc(-c3ccc(-c4cnc([C@@H]5CCCN5C(=O)[C@@H](NC(=O)OC)C(C)C)n4C(=O)OC)cc3)cc2)n1C(=O)OC)C(C)C
- pEC50 [12]: < 4.00

SMILES: CCOC(=O)n1c(-c2ccc(-c3ccc(-c4cnc([C@@H]5CCCN5C(=O)[C@@H](NC(=O)OC)C(C)C)n4C(=O)OCC)cc3)cc2)cnc1[C@@H]1CCCN1C(=O)[C@@H](NC(=O)OC)C(C)C
- pEC50 [12]: < 4.00

SMILES: CCCOC(=O)n1c(-c2ccc(-c3ccc(-c4cnc([C@@H]5CCCN5C(=O)[C@@H](NC(=O)OC)C(C)C)n4C(=O)OCCC)cc3)cc2)cnc1[C@@H]1CCCN1C(=O)[C@@H](NC(=O)OC)C(C)C
- pEC50 [12]: < 4.00

SMILES: COC(=O)N[C@H](C(=O)N1CCC[C@H]1c1ncc(-c2ccc(-c3ccc(-c4cnc([C@@H]5CCCN5C(=O)[C@@H](NC(=O)OC)C(C)C)n4C(=O)OC(C)C)cc3)cc2)n1C(=O)OC(C)C)C(C)C
- pEC50 [12]: < 4.00

SMILES: COC(=O)N[C@H](C(=O)N1CCC[C@H]1c1ncc(-c2ccc(-c3ccc(-c4cnc([C@@H]5CCCN5C(=O)[C@@H](NC(=O)OC)C(C)C)n4C(=O)OC(C)(C)C)cc3)cc2)n1C(=O)OC(C)(C)C)C(C)C
- pEC50 [12]: < 4.00

SMILES: COC(=O)N[C@H](C(=O)N1CCC[C@H]1c1ncc(-c2ccc(-c3ccc(-c4cnc([C@@H]5CCCN5C(=O)[C@@H](NC(=O)OC)C(C)C)n4C(=O)OCC(C)=O)cc3)cc2)n1C(=O)OCC(C)=O)C(C)C
- pEC50 [12]: < 4.00

SMILES: COC(=O)N[C@H](C(=O)N1CCC[C@H]1c1ncc(-c2ccc(-c3ccc(-c4cnc([C@@H]5CCCN5C(=O)[C@@H](NC(=O)OC)C(C)C)n4C(=O)COC(C)=O)cc3)cc2)n1C(=O)COC(C)=O)C(C)C
- pEC50 [12]: 10.10
- Stability [1]: Stable
- Stability [2]: Stable
- Drug metabolism [13]: metabolite_detected
- half-life [14]: < 0.5 h
- Cmax [15]: 341 ng/mL
- Tmax [16]: 4.05 h
- AUC [17]: 3330 ng·h/mL
- AUC [18]: 3440 ng·h/mL
- MRT [19]: 4.01 h
- t1/2 [20]: 2.93 h

SMILES: COC(=O)N[C@H](C(=O)N1CCC[C@H]1c1ncc(-c2ccc(-c3ccc(-c4cnc([C@@H]5CCCN5C(=O)[C@@H](NC(=O)OC)C(C)C)n4C(=O)c4ccccc4)cc3)cc2)n1C(=O)c1ccccc1)C(C)C
- pEC50 [12]: 6.81

SMILES: COC(=O)N[C@H](C(=O)N1CCC[C@H]1c1ncc(-c2ccc(-c3ccc(-c4cnc([C@@H]5CCCN5C(=O)[C@@H](NC(=O)OC)C(C)C)n4C(=O)c4ccc(Cl)cc4)cc3)cc2)n1C(=O)c1ccc(Cl)cc1)C(C)C
- pEC50 [12]: 7.11

SMILES: COC(=O)N[C@H](C(=O)N1CCC[C@H]1c1ncc(-c2ccc(-c3ccc(-c4cnc([C@@H]5CCCN5C(=O)[C@@H](NC(=O)OC)C(C)C)n4C(=O)c4ccc(C)cc4)cc3)cc2)n1C(=O)c1ccc(C)cc1)C(C)C
- pEC50 [12]: 6.64

SMILES: COC(=O)N[C@H](C(=O)N1CCC[C@H]1c1ncc(-c2ccc(-c3ccc(-c4cnc([C@@H]5CCCN5C(=O)[C@@H](NC(=O)OC)C(C)C)n4C(=O)Cc4ccccc4)cc3)cc2)n1C(=O)Cc1ccccc1)C(C)C
- pEC50 [12]: 6.16

SMILES: COC(=O)N[C@H](C(=O)N1CCC[C@H]1c1ncc(-c2ccc(-c3ccc(-c4cnc([C@@H]5CCCN5C(=O)[C@@H](NC(=O)OC)C(C)C)n4C(=O)CCc4ccccc4)cc3)cc2)n1C(=O)CCc1ccccc1)C(C)C
- pEC50 [12]: 6.01

SMILES: NC(=O)c1ncn([C@@H]2O[C@H](CO)[C@@H](O)[C@H]2O)n1 [RIBAVIRIN]
- Activity [21]: <50%
